Data taken from PMC5613016, “GRL-09510, a Unique P2-Crown-Tetrahydrofuranylurethane -Containing HIV-1 Protease Inhibitor, Maintains Its Favorable Antiviral Activity against Highly-Drug-Resistant HIV-1 Variants in vitro” (Scientific Reports, 2017).
Read-outs that look alike come from different tables or passages of the source.

Tests used:
HIV-1NL4-3 [1] = test system: HIV-1NL4-3; set-up: method as in PMID 14506019; settings: HIV-1NL4-3 in MT-4 cells, increasing concentrations; previously reported; cited from earlier work
HIV-2ROD = experiment: microbe, parasite or virus in culture; type: cell-based; settings: for EC50: 100 TCID50, MTT assay, read-out: EC50 Against HIV-2ROD; for Selectivity Index (CC50/EC50) MT2/HIV-2ROD: ratio of CC50 to EC50 against HIV-2ROD
Method: (§1) The susceptibility of HIV-1LAI or HIV-2ROD to various compounds was determined as previously described[20]–[22]. Briefly, MT-2 cells (10^4/ml) were exposed to 100 TCID50 of HIV-1LAI or HIV-2ROD in the presence or absence of various concentrations of compounds in 96-well plates and were incubated at 37 °C for 7 days. After incubation, 100 μl of the medium was removed from each well, 3-(4,5-dimetylthiazol-2-yl)-2,5-diphenyltetrazolium bromide (MTT) solution (10 μl, 7.5 mg/ml in PBS) was added to each well, followed by incubation at 37 °C for 2 h. […] To determine the sensitivity of clinically isolated HIV-1s to compounds, PHA-PBMC (10^6/ml) were exposed to 50 TCID50 of each HIV-1 and cultured in the presence or absence of various concentrations of compounds in 10-fold serial dilutions in 96-well plates. In determining the drug-susceptibility of certain laboratory HIV-1 strains, MT-4 cells were employed as target cells as previously described[23],[24]. MT-4 cells (10^5/ml) were exposed to 100 TCID50 of drug-resistant HIV-1s in the presence or absence of various concentrations of compounds and were incubated at 37 °C. On day 7, the supernatants were harvested and the amounts of p24 were determined by using a fully-automated chemiluminescent enzyme immunoassay system (Lumipulse f: Fujirebio, Tokyo)[35]–[37]. […] All assays were performed in duplicate, and EC50 shown in this report represent average values of two to four independent experiments. PHA-PBMCs were derived from a single donor in each independent experiment. The research protocols described in the present study were carried out in accordance with relevant guidelines and regulations, and were approved in Ethics Committee for Epidemiological and General Research at the Faculty of Life Sciences, Kumamoto University.

HIV-1LAI = experiment: microbe, parasite or virus in culture; type: cell-based; settings: for EC50: 100 TCID50, MTT assay, read-out: EC50 Against HIV-1LAI; for Selectivity Index (CC50/EC50) MT2/HIV-1LAI: ratio of CC50 to EC50 against HIV-1LAI
Method: as §1

[2] = Cytotoxicity against MT-2 cells (MTT assay); type: cell-based; settings: human
Method: as §1

[3] = test system: HIV-192UG029 (subtype A, X4); experiment: p24 production inhibition in PHA-PBMC; type: cell-based, HIV-1; settings: Human immunodeficiency virus 1, read-out: EC50 HIV-192UG029 (subtype A, X4)
Method: as §1

HIV-1NL4-3 [4] = experiment: p24 production inhibition in MT-4 cells; type: cell-based; settings: p24 Gag production, Table 3
Method: as §1

HIV-1ATV ^R 5μM = experiment: p24 production inhibition in MT-4 cells; type: cell-based; settings: for fold change of EC50 HIV-1ATV ^R 5μM: number in parentheses, compared to HIV-1NL4-3
Method: as §1

HIV-1LPV ^R 5μM = experiment: p24 production inhibition in MT-4 cells; type: cell-based; settings: for fold change of EC50 HIV-1LPV ^R 5μM: number in parentheses, compared to HIV-1NL4-3
Method: as §1

HIV-1_9510 ^R 36P = experiment: p24 production inhibition in MT-4 cells; type: cell-based
Method: as §1

HIV-1APV ^R 5μM = experiment: p24 production inhibition in MT-4 cells; type: cell-based; settings: for fold change of EC50 HIV-1APV ^R 5μM: number in parentheses, compared to HIV-1NL4-3
Method: as §1

HIV-1MDRmix DRV ^R 20P = experiment: p24 production inhibition in PHA-PBMC; type: cell-based; settings: for fold change of EC50 HIV-1MDRmix DRV ^R 20P: compared to EC50 for HIV-1ERS104pre
Method: as §1

HIV-1MDR/G = experiment: p24 production inhibition in PHA-PBMC; type: cell-based; settings: for EC50: p24 Gag production; for fold change of EC50 HIV-1MDR/G: compared to EC50 for HIV-1ERS104pre
Method: as §1

[5] = test system: HIV-1ME46 (subtype B, X4/R5); experiment: p24 production inhibition in PHA-PBMC; type: cell-based; settings: Human immunodeficiency virus 1, PHA-PBMC, p24 Gag production
Method: as §1

HIV-1MDR/B = experiment: p24 production inhibition in PHA-PBMC; type: cell-based; settings: for EC50: p24 Gag production; for fold change of EC50 HIV-1MDR/B: compared to EC50 for HIV-1ERS104pre
Method: as §1

[6] = test system: HIV-1ERS104pre (wild-type); experiment: p24 production inhibition in PHA-PBMC; type: cell-based; settings: p24 Gag production
Method: as §1

HIV-1MDR/TM = experiment: p24 production inhibition in PHA-PBMC; type: cell-based; settings: for EC50: p24 Gag production; for fold change of EC50 HIV-1MDR/TM: compared to EC50 for HIV-1ERS104pre
Method: as §1

HIV-1MDR/C = experiment: p24 production inhibition in PHA-PBMC; type: cell-based; settings: for EC50: p24 Gag production; for fold change of EC50 HIV-1MDR/C: compared to EC50 for HIV-1ERS104pre
Method: as §1

HIV-1BaL (subtype B, R5) = experiment: p24 production inhibition in PHA-PBMC; type: cell-based; settings: Human immunodeficiency virus 1, PHA-PBMC, p24 Gag production
Method: as §1

HIV-1NL4-3 [7] = experiment: In vitro selection of resistant HIV-1 variants in MT-4 cells; type: cell-based; settings: HIV-1NL4-3 in MT-4 cells, increasing concentrations
Excerpt: MT-4 cells (10^5/ml) were exposed to HIV-1NL4-3 (500 TCID50) and cultured in the presence of compounds at an initial concentration of its EC50 value. Viral replication was monitored by the determination of the amount of p24 produced by MT-4 cells. The supernatants were harvested on day 7 and were used to infect fresh MT-4 cells for the next round of culture in the presence of increasing concentrations of each compound. Proviral DNAs obtained from the lysates of infected cells were subjected to sequencing. This selection procedure was carried out until the drug concentration reached 5 μM as previously described[20]–[22]).

MT-2 cells = experiment: Cytotoxicity against MT-2 cells (MTT assay); type: cell-based
Method: as §1

[8] = Human immunodeficiency virus 1, PHA-PBMC

CC(C)CN(C[C@@H](O)[C@H](Cc1ccccc1)NC(=O)O[C@H]1CCOC1)S(=O)(=O)c1ccc(N)cc1 [APV, Amprenavir]
passage at which selection concentration reached 5 µM (HIV-1NL4-3 [1]): ≥ 20
EC50 (HIV-2ROD; Human immunodeficiency virus 2, MT2, MT-2 cells): 297 ± 174 nM
Selectivity Index (CC50/EC50) MT2/HIV-2ROD (HIV-2ROD): 162
EC50 (HIV-1LAI; Human immunodeficiency virus 1, MT2, MT-2 cells): 37 ± 7 nM
Selectivity Index (CC50/EC50) MT2/HIV-1LAI (HIV-1LAI): 1,303
CC50 [2]: 48200 ± 9900 nM
EC50 [3]: 41 ± 2 nM
EC50 (HIV-1NL4-3 [4]; Human immunodeficiency virus 1, MT4, MT-4 cells): 30 ± 6 nM
EC50 (HIV-1ATV ^R 5μM; Human immunodeficiency virus 1, MT4, read-out: EC50 HIV-1ATV ^R 5μM, MT-4 cells, p24 Gag production): 350 ± 70 nM
fold change of EC50 HIV-1ATV ^R 5μM (HIV-1ATV ^R 5μM): 9
EC50 (HIV-1LPV ^R 5μM; Human immunodeficiency virus 1, MT4, read-out: EC50 HIV-1LPV ^R 5μM, MT-4 cells, p24 Gag production): > 1000 nM
fold change of EC50 HIV-1LPV ^R 5μM (HIV-1LPV ^R 5μM): > 25
EC50 (HIV-1_9510 ^R 36P; Human immunodeficiency virus 1, MT4, read-out: EC50 HIV-19510RP36): 270 ± 20 nM
fold change of EC50 HIV-19510RP36 (HIV-1_9510 ^R 36P; compared to EC50 for HIV-1NL4-3, Supplemental Table 3): 9
EC50 (HIV-1APV ^R 5μM; Human immunodeficiency virus 1, MT4, read-out: EC50 HIV-1APV ^R 5μM, MT-4 cells, p24 Gag production): > 1000 nM
fold change of EC50 HIV-1APV ^R 5μM (HIV-1APV ^R 5μM): > 25
EC50 (HIV-1MDRmix DRV ^R 20P; Human immunodeficiency virus 1, read-out: EC50 HIV-1MDRmix DRV ^R 20P, PHA-PBMC, p24 Gag production): > 1000 nM
fold change of EC50 HIV-1MDRmix DRV ^R 20P (HIV-1MDRmix DRV ^R 20P): > 26
EC50 (HIV-1MDR/G; [8]): 300 ± 90 nM
fold change of EC50 HIV-1MDR/G (HIV-1MDR/G): 8
EC50 [5]: 22 ± 40 nM
EC50 (HIV-1MDR/B; [8]): 420 ± 50 nM
fold change of EC50 HIV-1MDR/B (HIV-1MDR/B): 11
EC50 [6, 8]: 39 ± 5 nM
EC50 (HIV-1MDR/TM; [8]): 320 ± 50 nM
fold change of EC50 HIV-1MDR/TM (HIV-1MDR/TM): 8
EC50 (HIV-1MDR/C; [8]): 250 ± 50 nM
fold change of EC50 HIV-1MDR/C (HIV-1MDR/C): 6
EC50 (HIV-1BaL (subtype B, R5)): 29 ± 2 nM

COc1ccc(S(=O)(=O)N(CC(C)C)CC(O)C(Cc2ccccc2)NC(=O)OC2C3COC4OCC2C4C3)cc1 (centres unmarked) [GRL-09610]
EC50 (HIV-2ROD; MT-2 cells): 15 ± 9 nM
Selectivity Index (CC50/EC50) MT2/HIV-2ROD (HIV-2ROD): 2,207
EC50 (HIV-1LAI; MT-2 cells): 2.3 ± 0.7 nM
Selectivity Index (CC50/EC50) MT2/HIV-1LAI (HIV-1LAI): 14,391
passage at which selection concentration reached 5 µM (HIV-1NL4-3 [7]): ~43
CC50 (MT-2 cells): 33100 ± 1000 nM
EC50 (HIV-1NL4-3 [4]; MT-4 cells): 3.2 ± 0.2 nM
fold change of EC50 HIV-1ATV ^R 5μM (HIV-1ATV ^R 5μM): 11
EC50 (HIV-1ATV ^R 5μM; read-out: EC50 HIV-1ATV ^R 5μM, MT-4 cells, p24 Gag production): 35.4 ± 0.8 nM
fold change of EC50 HIV-1LPV ^R 5μM (HIV-1LPV ^R 5μM): 10
EC50 (HIV-1LPV ^R 5μM; read-out: EC50 HIV-1LPV ^R 5μM, MT-4 cells, p24 Gag production): 32 ± 1 nM
fold change of EC50 HIV-1APV ^R 5μM (HIV-1APV ^R 5μM): 97
EC50 (HIV-1APV ^R 5μM; read-out: EC50 HIV-1APV ^R 5μM, MT-4 cells, p24 Gag production): 310 ± 90 nM
fold change of EC50 HIV-1MDRmix DRV ^R 20P (HIV-1MDRmix DRV ^R 20P): 78
EC50 (HIV-1MDRmix DRV ^R 20P; read-out: EC50 HIV-1MDRmix DRV ^R 20P, PHA-PBMC, p24 Gag production): 250 ± 30 nM
EC50 (HIV-1MDR/G; PHA-PBMC): 15.8 ± 13.3 nM
fold change of EC50 HIV-1MDR/G (HIV-1MDR/G): 5
EC50 (HIV-1MDR/B; PHA-PBMC): 14.5 ± 1.3 nM
fold change of EC50 HIV-1MDR/B (HIV-1MDR/B): 5
EC50 ([6]; PHA-PBMC): 3.2 ± 0.2 nM
EC50 (HIV-1MDR/TM; PHA-PBMC): 28.9 ± 1.6 nM
fold change of EC50 HIV-1MDR/TM (HIV-1MDR/TM): 9
EC50 (HIV-1MDR/C; PHA-PBMC): 4.9 ± 1.8 nM
fold change of EC50 HIV-1MDR/C (HIV-1MDR/C): 2
